Test results as given in patent US5834461A, “Tricyclic benzazepine vasopressin antagonists” (American Cyanamid Company, priority 1997, dated 1998).

Columns and labels:
[1] = target: T1, vasopressin V1 receptor subtype in human platelet membranes (Homo sapiens, UniProt P37288); test: Binding to Vasopressin V1 Receptor Subtype in Human Platelet Membranes; details: for IC50: human platelet V1 (*)
T1 construct: tissue Hudson Valley Blood Services; host or cells: human blood platelets (frozen platelet rich plasma)
Method: (a) Platelet Membrane Preparation:
Frozen platelet rich plasma (PRP), received from the Hudson Valley Blood Services, are thawed to room temperature. (Platelet Source: Hudson Valley Blood Services, Westchester Medical Center, Valhalla, N.Y.). The tubes containing the PRP are centrifuged at 16,000×g for 10 min. at 4° C. and the supernatant fluid discarded. The platelets resuspended in an equal volume of 50.0 mM Tris.HCl, pH 7.5 containing 120 mM NaCl and 20.0 mM EDTA. The suspension is recentrifuged at 16,000×g for 10 min. This washing step is repeated one more time. The wash discarded and the lysed pellets homogenized in low ionic strength buffer of Tris.HCl, 5.0 mM, pH 7.5 containing 5.0 mM EDTA. The homogenate is centrifuged at 39,000×g for 10 min. The resulting pellet is resuspended in Tris.HCl buffer, 70.0 mM, pH 7.5 and recentrifuged at 39,000×g for 10 min. The final pellet is resuspended in 50.0 mM Tris.HCl buffer pH 7.4 containing 120 mM NaCl and 5.0 mM KCl to give 1.0-2.0 mg protein per ml of suspension.
(b) Binding to Vasopressin V1 Receptor Subtype in Human Platelet Membranes:
In wells of a 96 well format microtiter plate, add 100 μl of 50.0 mM Tris.HCl buffer containing 0.2% BSA and a mixture of protease inhibitors (aprotinin, leupeptin etc.). Then add 20 μl of [^3 H]Ligand (Manning or Arg^8 Vasopressin), to give final concentrations ranging from 0.01 to 10.0 nM. Initiate the binding by adding 80.0 μl of platelet suspension (approx. 100 μg protein). Mix all reagents by pipetting the mixture up and down a few times. Non specific binding is measured in the presence of 1.0 μM of unlabeled ligand (Manning or Arg^8 Vasopressin). Let the mixture stand undisturbed at room temperature for ninety (90) min. Upon this time, rapidly filter off the incubate under vacuum suction over GF/B filters, using a Brandel Harvester. The radioactivity caught on the filter disks is determined by the addition of liquid scintillant and counting in a liquid scintillator.

[2] = target: T2, human V2 vasopressin receptor (Homo sapiens, UniProt P30518); test: Binding to Membranes of Mouse Fibroblast Cell Line (LV-2) Transfected with the cDNA Expressing the Human V2 Vasopressin Receptor; details: for IC50: LV-2 cells
T2 construct: expressed in transfected cells; host or cells: mouse fibroblast cell line LV-2
Method: Flasks of 175 ml capacity, containing attached cells grown to confluence, are cleared of culture medium by aspiration. The flasks containing the attached cells are rinsed with 2×5 ml of phosphate buffered saline (PBS) and the liquid aspirated off each time. Finally, 5 ml of an enzyme free dissociation Hank's based solution (Specialty Media, Inc., Lafayette, N.J.) is added and the flasks are left undisturbed for 2 min. The content of all flasks is poured into a centrifuge tube and the cells pelleted at 300×g for 15 min. The Hank's based solution is aspirated off and the cells homogenized with a polytron at setting #6 for 10 sec in 10.0 mM Tris.HCl buffer, pH 7.4 containing 0.25M sucrose and 1.0 mM EDTA. The homogenate is centrifuged at 1500×g for 10 min to remove ghost membranes. The supernatant fluid is centrifuged at 100,000×g for 60 min to pellet the receptor protein. Upon completion, the pellet is resuspended in a small volume of 50.0 mM Tris.HCl buffer, pH 7.4. The protein content is determined by the Lowry method and the receptor membranes are suspended in 50.0 mM Tris.HCl buffer containing 0.1 mM phenylmethylsulfonylfluoride (PMSF) and 0.2% bovine serum albumin (BSA) to give 2.5 mg receptor protein per ml of suspension.
For binding experiments, the following is added in μl volume to wells of a 96 well format of a microtiter plate: 100.0 μl of 100.0 mM Tris.HCl buffer containing 0.2% heat inactivated BSA, 10.0 mM MgCl2 and a mixture of protease inhibitors: leupeptin, 1.0 mg %; aprotinin, 1.0 mg %; 1,10-phenanthroline, 2.0 mg %; trypsin inhibitor, 10.0 mg % and 0.1 mM PMSF., 20.0 μl of [^3 H] Arginine^8, vasopressin (S.A. 75.0 Ci/mmole) at 0.8 nM and the reaction initiated by the addition of 80.0 μl of tissue membranes ([…]).
The plates are left undisturbed on the bench top for 120 min to reach equilibrium. Non specific binding is assessed in the presence of 1.0 μM of unlabeled ligand, added in 20 μl volume. For test compounds, these are solubilized in 50% dimethylsulfoxide (DMSO) and added in 20.0 μl volume to a final incubation volume of 200 μl. Upon completion of binding, the content of each well is filtered off, using a Brandel® cell Harvester (Gaithersburg, Md.). The radioactivity trapped on the filter disk by the ligand-receptor complex is assessed by liquid scintillation counting in a Packard LS Counter, with an efficiency of 65% for tritium.

vasopressin V2 = test: Vasopressin V2 Antagonist Activity in Conscious Hydrated Rats (diuretic effect); assay type: in vivo, normal Sprague-Dawley rats; details: 10 mg/kg orally, AVP 0.4 μg/kg i.p.
How it was run: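 Conscious rats were dosed orally at 0.1–100 mg/kg, and AVP 0.4 μg/kg i.p. in peanut oil followed 1 h later. Urine volume, osmolality and Na/K/Cl were compared against AVP-treated controls, with non-AVP rats as water-loading controls.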

vasopressin V1 = test: Vasopressin V1 Antagonist Activity in Conscious Rats (vasopressin vasopressor response); assay type: in vivo, rat (spontaneously hypertensive rats); details: 10 mg/kg i.v.
How it was run: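 Conscious rats had the ventral caudal tail artery cannulated into the lower abdominal aorta under local procaine anesthesia, plus a caudal vein cannula for intravenous dosing. Pulsatile blood pressure was recorded via a Statham P23Db transducer. Vasopressor responses to vasopressin injections were measured before and after compound dosing, with percent antagonism calculated relative to the pre-drug response taken as 100%.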

[3] = target: T2, human V2 vasopressin receptor; test: Binding to Membranes of Mouse Fibroblast Cell Line (LV-2) Transfected with the cDNA Expressing the Human V2 Vasopressin Receptor; details: V2 column, printed with one *, read-out: V2, % at concentration in brackets

T1 sequence (P37288 whole entry): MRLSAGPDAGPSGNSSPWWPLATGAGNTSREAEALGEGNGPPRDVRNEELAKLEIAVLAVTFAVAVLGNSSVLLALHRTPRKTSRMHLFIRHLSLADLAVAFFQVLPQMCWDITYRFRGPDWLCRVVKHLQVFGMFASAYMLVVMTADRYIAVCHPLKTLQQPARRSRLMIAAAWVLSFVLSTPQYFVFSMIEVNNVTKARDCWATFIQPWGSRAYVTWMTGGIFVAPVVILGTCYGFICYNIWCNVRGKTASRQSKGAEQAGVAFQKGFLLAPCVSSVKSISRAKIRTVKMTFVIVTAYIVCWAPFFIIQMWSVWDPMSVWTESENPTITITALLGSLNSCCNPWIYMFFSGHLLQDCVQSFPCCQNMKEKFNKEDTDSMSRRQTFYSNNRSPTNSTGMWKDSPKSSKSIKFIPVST
T2 sequence (P30518 whole entry): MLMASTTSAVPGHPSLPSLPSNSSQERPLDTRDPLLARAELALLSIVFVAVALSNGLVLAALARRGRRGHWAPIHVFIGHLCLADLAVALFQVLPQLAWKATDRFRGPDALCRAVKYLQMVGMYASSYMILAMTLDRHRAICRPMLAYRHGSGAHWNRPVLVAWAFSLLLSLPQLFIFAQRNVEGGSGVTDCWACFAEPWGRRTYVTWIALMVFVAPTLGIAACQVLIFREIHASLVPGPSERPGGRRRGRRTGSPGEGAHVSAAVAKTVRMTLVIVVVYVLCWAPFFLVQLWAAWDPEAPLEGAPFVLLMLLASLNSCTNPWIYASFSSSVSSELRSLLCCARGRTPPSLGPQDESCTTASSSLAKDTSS

## Cc1ccccc1C(=O)Nc1ccc(C(=O)N2Cc3sccc3Cc3ccccc32)cc1 [Example 458]
[1]
  IC50: 0.0018 µM
[2]
  IC50: 0.00071 µM
Vasopressin V2
  Osmolality: 537 mOsm/kg
  Urine Volume: 13.5 ml/4 hrs.
Vasopressin V1
  MAX % Inhibition: 77%
  Time of max % inhibition: 180 min

## CCOC(=O)Cn1cc2c(n1)-c1ccccc1N(C(=O)c1ccc(NC(=O)c3ccc(Cl)cc3Cl)cc1)CC2 [Example 452, Ethyl 6-[4-[(2,4-dichlorobenzoyl)amino]benzoyl]-5,6-dihydropyrazolo[4,3-d][1]benzazepine-2(4H)-acetate]
[1]
  IC50: 0.47 µM
[2]
  IC50: 0.01 µM
Vasopressin V2
  Osmolality: 584 mOsm/kg
  Urine Volume: 7.8 ml/4 hrs.

## Cc1ccccc1C(=O)Nc1ccc(C(=O)N2Cc3ccsc3Cc3ccccc32)cc1 [Example 456, N-[4-[(4,10-Dihydro-5H-thieno[3,2-c][1]benzazepin-5-yl)carbonyl]phenyl]-2-methylbenzamide]
[1]
  IC50: 0.036 µM
[2]
  IC50: 0.009 µM
Vasopressin V2
  Osmolality: 1209 mOsm/kg
  Urine Volume: 4.8 ml/4 hrs.

## Cc1c(F)cccc1C(=O)Nc1ccc(C(=O)N2Cc3ccccc3Cc3ccccc32)c(Cl)c1 [Example 264, N-[4-[(6,11-Dihydro-5H-dibenz[b,e]azepin-5-yl)-carbonyl]-3-chlorophenyl]-2-methyl-3-fluorobenzamide]
[1]
  IC50: 0.98 µM
[2]
  IC50: 0.028 µM
Vasopressin V2
  Osmolality: 682 mOsm/kg
  Urine Volume: 12 ml/4 hrs.

## Cc1ccccc1NC(=O)Nc1ccc(C(=O)N2Cc3ccccc3Cc3ccccc32)cc1 [Example 122, 6,11-Dihydro-5-[4-[[[(2-methylphenyl)amino]carbonyl]-amino]benzoyl]-5H-dibenz[b,e]azepine]
[1]; 1.5 h, 10 μM, human platelet (*), read-out: *V1, % at concentration in brackets
  inhibition at 10 µM: 95%
[3]
  inhibition at 10 µM: 92%

## O=C(O)Cn1cc2c(n1)-c1ccccc1N(C(=O)c1ccc(NC(=O)c3ccc(Cl)cc3Cl)cc1)CC2 [Example 451, 6-[4-[(2,4-Dichlorobenzoyl)amino]benzoyl]-5,6-dihydropyrazolo[4,3-d][1]benzazepine-2(4H)-acetic acid]
[1]; 1.5 h, 1 μM, human platelet (*), read-out: *V1, % at concentration in brackets
  inhibition at 1 µM: 35%
[2]; 1 μM, read-out: **V2, % at concentration in brackets
  inhibition at 1 µM: 69%
Vasopressin V2
  Osmolality: 989 mOsm/kg
  Urine Volume: 5.3 ml/4 hrs.
